{"source": "patent US20040076999A1", "about": "“Computer user interface facilitating acquiring and analyzing of biological specimen traits” (Baylor College of Medicine, priority 2002, published 2004)", "key": {"[1]": {"tested_on": "Drosophila", "settings": "feeding Drosophila; cited from earlier work"}, "[2]": {"tested_on": "flies", "settings": "administered orally to flies; cited from earlier work"}, "[3]": {"tested_on": "wild-type flies", "assay": "Motion tracking with wild-type flies", "assay_type": "in vivo, Drosophila", "settings": "flies fed 0.1M or 0.05M LiCl, compared to controls; FIG. 32", "description": "(§1) Each movie is first scored individually to give one value per score and movie. A single movie is therefore considered to be the experimental base unit. Thereafter average values and standard errors for all scores are calculated from the movie score values for all repeats for a vial. Those averages and standard errors are the values shown in the PhenoScreen program. The data that is used in the scoring process are the trajectories of the corresponding movie. Each trajectory consists of a list of x- and y-coordinates of the position of the fly (and also size), with one list entry for every frame from when it starts moving in one frame until it stops in another.\nSpeed: The Speed score is calculated in the same way as the X-Speed score, but instead of only using the length of the x-component of the speed vector, the length of the whole vector is used. That is, [length]=square root of ([x-length]^2+[y-length]^2).\nTurning: The Turning score is calculated in the same way as the Speed score, but instead of using the length of the speed vector, the absolute angle between the current speed vector and the previous one is used, giving a value between […].\nStumbling: The Stumbling score is calculated in the same way as the Speed score, but instead of using the length of the speed vector, the absolute angle between the current speed vector and the direction of body orientation is used, giving a value between 0 and 90 degrees.\nSeveral sets of wild-type flies were assayed under various conditions to test the motion tracking software. Lithium Chloride (LiCl), a treatment for bipolar affective disorder in humans, is also known to induce behavioral changes in Drosophila (Xia et al., 1997). […] The results of this assay are shown in the bar graph of FIG. 32."}, "[4]": {"tested_on": "Drosophila expressing a mutant form of human Huntington (HD)", "assay": "Motion tracking with Drosophila model of Huntington disease", "assay_type": "in vivo", "settings": "HD flies with drug versus wt flies", "description": "as §1\nCross150: The Cross150 score is the number of trajectories that either crossed the line at x=150 in the negative x-direction (from bottom to top of the vial) during the movie, or that were already above that line at the start of the movie. […] In other words this score measures the number of detected flies that either managed to hold on to the tube or that managed to climb above the x=150 line within the length of the movie.\nDrosophila expressing a mutant form of human Huntington (HD) have a functional deficit that is quantifiable, reproducible, and is suitable for automated high-throughput screening. Drosophila (or specimen) movements can be analyzed for various characteristics and/or traits. […]"}}}
{"compound": "4-phenylbutyrate [PBA]", "values": [{"measurement": "lifespan", "setting": "[1]", "value": "significantly increase"}, {"measurement": "locomotor vigor", "setting": "[1]", "value": "without diminution"}]}
{"compound": "NCC1(CC(=O)O)CCCCC1", "note": "[Gabapentin]", "values": [{"measurement": "mean recovery times following seizure", "setting": "[2]", "value": "reduce"}, {"measurement": "seizure", "setting": "[2]", "value": "reduce"}]}
{"compound": "[Cl-].[Li+]", "note": "[LiCl, Lithium Chloride]", "values": [{"measurement": "incidence of stumbling", "setting": "[3]", "value": "increase incidence"}, {"measurement": "incidence of turning", "setting": "[3]", "value": "increase incidence"}, {"measurement": "speed", "setting": "[3]", "value": "significant reduction"}]}
{"compound": "O=C1NC(=O)C(c2ccccc2)(c2ccccc2)N1", "note": "[Phenyloin]", "values": [{"measurement": "mean recovery times following seizure", "setting": "[2]", "value": "reduce"}, {"measurement": "seizure", "setting": "[2]", "value": "reduce"}]}
{"compound": "CC(/C=C/C(=O)NO)=C\\[C@@H](C)C(=O)c1ccc(N(C)C)cc1", "note": "[TSA]", "values": [{"measurement": "climbing ability", "setting": "[4]", "value": "restore climbing ability for HD flies to almost the same level as for wt flies"}, {"measurement": "speed restored to wt level", "setting": "[4]", "value": "the same is not true for speed"}]}
{"compound": "CC1(C)O[C@@H]2[C@@H](CO[C@@]3(COS(N)(=O)=O)OC(C)(C)O[C@@H]23)O1", "note": "[Topiramate]", "values": [{"measurement": "mean recovery times following seizure", "setting": "[2]", "value": "reduce"}, {"measurement": "seizure", "setting": "[2]", "value": "reduce"}]}
